Source: patent US10450336B2 (Los Alamos National Security, LLC, priority 2014, dated 2019)

Test: radiolabeling kinetics of the ligands with Bi-207 (radio-TLC)
Settings: bismuth complexation, comparison among the four ligands
Description: The radiolabeling kinetics of the ligands L^py, L^pyd, L^pyr, and L^pz with bismuth ions was examined using Bi-207 (t1/2=32 years) because it has a much longer half life than Bi-213. Solutions having concentrations of 1, 10, 100, and 1000 micromolar (“μM”) of each of the ligands were prepared. Each solution was combined with 3 kBq of Bi-207. The reaction temperature was ambient room temperature (21±2° C.). Aliquots of each reaction mixture were obtained during the reaction and analyzed by radio-TLC. The rates of reaction (i.e. the radiolabeling kinetics) between the bismuth ions and the ligands were dependent on the individual ligand and also on the concentration of the ligand. At a ligand concentration of 1 μM, a maximum of 50% labeling was observed after 60 minutes. At a ligand concentration of 1000 micromolar, the reaction was nearly 100% complete (i.e. 100% of the ligand was labeled with Bi-207) after 5 minutes. FIG. 3 provides a graph of the radiolabeling kinetics for the four ligands at a ligand concentration of 100 μM. […] By comparison, chelation of Bi-213 with the known ligands DOTA and CHX-DTPA requires heating to 90° C.

## c1cnc(CN2CCN(Cc3cnccn3)CCN(Cc3cnccn3)CCN(Cc3cnccn3)CC2)cn1 [L^py, 1,4,7,10-Tetrakis(2-pyrazinylmethyl)-1,4,7,10-tetraazacyclododecane, reference compound]
  complexation kinetics (relative): slowest
